IC50 data for 45 compounds are collected here from ChEMBL document CHEMBL1129324, “Tyrphostins. 5. Potent inhibitors of platelet-derived growth factor receptor tyrosine kinase: structure-activity relationships in quinoxalines, quinolines, and indole tyrphostins” (J Med Chem, 1996).

In this assay the target is Platelet-derived growth factor receptor (Mus musculus, UniProt P05622+P26618). Briefly: Inhibitory activity against platelet-derived growth factor receptor tyrosine kinase in Swiss 3T3 cells. In kind it is cell-based.
`COc1cc2ncc(-c3ccccc3)nc2cc1OC` showed a half-maximal inhibitory concentration (IC50) of 0.8 µM.

In turn, `Cc1cc2nc(C)c(C)nc2cc1C` displayed an IC50 greater than 50 µM.

For `COc1cc2nc(O)c(-c3ccccc3)nc2cc1OC`, the 50% inhibitory concentration (IC50) was greater than 50 µM.

Take `O=C(O)c1ccc2ncc(-c3ccccc3)nc2c1`: the 50% inhibitory concentration (IC50) was greater than 50 µM.

Regarding `O=[N+]([O-])c1ccc2ncc(-c3ccccc3)nc2c1`, half-maximal inhibition (IC50) was put at 25 µM.

The compound `Cc1ccc2ncc(-c3ccccc3)nc2c1` returned a half-maximal inhibitory concentration (IC50) of 90 µM.

`CCOCc1nc2cc(C)c(C)cc2nc1-c1ccccc1` returned a half-maximal inhibitory concentration (IC50) greater than 50 µM.

`c1ccc(-c2nc3ccccc3nc2-c2ccccn2)nc1` showed a half-inhibitory concentration (IC50) of 100 µM.

Take `COc1cc2nc(-c3ccccc3)cnc2cc1O`: the midpoint of inhibition, the IC50, lay at 100 µM.

`c1coc(-c2cnc3ccccc3n2)c1` gave an IC50 greater than 100 µM.

Compound `Cc1cc2nc(O)c(-c3ccccc3)nc2cc1C` registered an IC50 of 10 µM.

In turn, `Cc1ccc(-c2cnc3ccccc3n2)s1` registered an IC50 greater than 100 µM.

For `Cc1cc2nc(CP(=O)(O)O)c(-c3ccccc3)nc2cc1C`, the IC50 was greater than 50 µM.

As to `c1ccc(-c2cnc3ccccc3n2)cc1`, the IC50 was 10 µM.

The compound `Cc1cc2nc(C=O)c(-c3ccccc3)nc2cc1C` registered an IC50 greater than 50 µM.

In the case of `Cc1cc2nc(CSCCOCCSCc3nc4cc(C)c(C)cc4nc3-c3ccccc3)c(-c3ccccc3)nc2cc1C`, the 50% inhibitory concentration (IC50) was greater than 50 µM.

`O=c1nc2[nH]c3ccccc3nc-2c(=O)[nH]1` [ALLOXAZINE] registered a half-inhibitory concentration (IC50) greater than 50 µM.

For the compound `CCOC(=O)c1nc2cc(C)c(C)cc2nc1-c1ccccc1`, the half-maximal inhibitory concentration (IC50) is greater than 50 µM.

As to `Cc1cc2nc(CSCCCSCc3nc4cc(C)c(C)cc4nc3-c3ccccc3)c(-c3ccccc3)nc2cc1C`, the IC50 was greater than 50 µM.

`Oc1cc2ncc(-c3ccccc3)nc2cc1O` yielded an IC50 greater than 100 µM.

`c1ccc2nc(-c3ccsc3)cnc2c1` gave an IC50 greater than 100 µM.

As for `Cc1cc2nc(C)c(-c3ccccc3)nc2cc1C`, the half-inhibitory concentration (IC50) was greater than 50 µM.

The compound `Cc1cc2nc3[nH]c4ccc(Br)cc4c3nc2cc1C` gave a half-inhibitory concentration (IC50) greater than 50 µM.

For `c1ccc2nc(-c3c[nH]c4ccccc34)cnc2c1`, the half-maximal inhibitory concentration (IC50) was greater than 100 µM.

As to `c1coc(-c2nc3ccccc3nc2-c2ccco2)c1`, the IC50 is greater than 100 µM.

With `Cc1cc2nc(CBr)c(-c3ccccc3)nc2cc1C`, the half-maximal inhibitory concentration (IC50) is greater than 50 µM.

`c1ccc(-c2cnc3cc4ccccc4cc3n2)cc1` showed an IC50 of 0.9 µM. This counts as sub-micromolar.

For the compound `O=C(c1ccccc1)c1ccc2ncc(-c3ccccc3)nc2c1`, the IC50 came out at 6 µM.

In turn, `c1ccc(-c2cnc3ncccc3n2)cc1` gave an IC50 of 35 µM.

The compound `Nc1ncnc2ncc(-c3ccccc3)nc12` yielded a 50% inhibitory concentration (IC50) greater than 50 µM.

`Cc1cc2nc(Cl)c(-c3ccccc3)nc2cc1C` showed an IC50 greater than 50 µM.

As to `Cc1cc2nc(O)c(-c3ccccc3)[n+]([O-])c2cc1C`, the IC50 is greater than 50 µM.

Turning to `c1ccc(-c2ccc(-c3cnc4ccccc4n3)s2)cc1`, the half-inhibitory concentration (IC50) was greater than 100 µM.

The compound `Cc1cc2nc(CSCc3nc4cc(C)c(C)cc4nc3-c3ccccc3)c(-c3ccccc3)nc2cc1C` came in with a half-inhibitory concentration (IC50) greater than 50 µM.

`Cc1cc2nc(CN(C)C)c(-c3ccccc3)nc2cc1C` showed a half-inhibitory concentration (IC50) greater than 50 µM.

For the compound `Cc1nc2ccccc2nc1-c1ccccc1`, the IC50 was greater than 100 µM.

Take `Cc1nc2ccccc2nc1C`: the IC50 is greater than 100 µM.

Take `Cc1cc2ncc(-c3ccc(O)c(O)c3)nc2cc1C`: the half-maximal inhibitory concentration (IC50) stood at 0.6 µM.

In turn, `Cc1cc2nc(C(=O)O)c(-c3ccccc3)nc2cc1C` yielded a half-maximal inhibitory concentration (IC50) of 1 µM.

For the compound `Cc1cc2nc(-c3ccccn3)c(-c3ccccn3)nc2cc1C`, the half-inhibitory concentration (IC50) is greater than 100 µM.

Regarding `c1csc(-c2cnc3ccccc3n2)c1`, the IC50 is 100 µM.

In the case of `CCOP(=O)(Cc1nc2cc(C)c(C)cc2nc1-c1ccccc1)OCC`, the IC50 is greater than 50 µM.

`c1ccc(-c2nc3ccccc3nc2-c2ccccc2)cc1`: the IC50 was greater than 50 µM.

In the case of `Clc1cc2ncc(-c3ccccc3)nc2cc1Cl`, the IC50 is greater than 50 µM.

Compound `CC(C)CCc1ccc(-c2cnc3ccccc3n2)s1` had an IC50 greater than 100 µM.
